# Laboratory results published in ChEMBL document CHEMBL1139134, “Synthesis and cytotoxic activity of 17-carboxylic acid modified 23-hydroxy betulinic acid ester derivatives” (Bioorg Med Chem Lett, 2007).
# How the values were obtained:
# [1] = tested on: H22; test: Antitumor activity in H22 cells xenografted ICR mouse assessed as tumor growth inhibition at 30 mg/kg, iv after 4 days; details: 96 h, read-out: Inhibition
# [2] = Cytotoxicity against human SF763 cells by MTT assay; assay type: functional, cell-based
# [3] = tested on: Bel-7402; test: Cytotoxicity against human BEL-7402 cells by MTT assay; assay type: functional, cell-based
# [4] = tested on: B16; test: Cytotoxicity against mouse B16 cells by MTT assay; assay type: functional, cell-based
# [5] = tested on: C6; test: Cytotoxicity against […] by MTT assay
# [6] = tested on: A549; test: Cytotoxicity against human A549 cells by MTT assay; assay type: functional, cell-based
# [7] = tested on: B16; test: Antitumor activity in B16 cells xenografted ICR mouse assessed as tumor weight at 25 mg/kg, iv after 11 days; assay type: functional
# [8] = tested on: B16; test: Antitumor activity in B16 cells xenografted ICR mouse assessed as tumor growth inhibition at 25 mg/kg, iv after 11 days; assay type: functional; details: B16, 264 h
# [9] = tested on: H22; test: Antitumor activity in H22 cells xenografted ICR mouse assessed as tumor weight at 20 mg/kg, ip after 4 days; assay type: functional; details: route intraperitoneal
# [10] = tested on: B16; test: Antitumor activity in B16 cells xenografted ICR mouse assessed as tumor weight at 20 mg/kg, ip after 11 days; assay type: functional; details: route intraperitoneal
# [11] = tested on: B16; test: Antitumor activity in B16 cells xenografted ICR mouse assessed as tumor growth inhibition at 20 mg/kg, ip after 11 days; assay type: functional; details: 264 h, route intraperitoneal
# [12] = tested on: H22; test: Antitumor activity in H22 cells xenografted ICR mouse assessed as tumor growth inhibition at 20 mg/kg, ip after 4 days; assay type: functional; details: 96 h, route intraperitoneal
SMILES,inhibition in vivo at 30 mg/kg [1] [%],IC50 [2] [µM],IC50 [3] [µM],IC50 [4] [µM],IC50 [5] [µM],IC50 [6] [µM],Activity [7] [g],inhibition in vivo at 25 mg/kg [8] [%],Activity [9] [g],Activity [10] [g],inhibition in vivo at 20 mg/kg [11] [%],inhibition in vivo at 20 mg/kg [12] [%]
O=P1(N(CCCl)CCCl)NCCCO1 (configuration not stated) [CYCLOPHOSPHAMIDE ANHYDROUS],56.3,–,–,–,–,–,–,–,–,–,–,–
C=C(C)[C@@H]1CC[C@]2(C(=O)OCC#CC)CC[C@]3(C)[C@H](CC[C@@H]4[C@@]5(C)CC[C@H](O)[C@@](C)(CO)[C@@H]5CC[C@]43C)[C@@H]12,–,64.3,53,63.1,75.9,81.1,–,–,–,–,–,–
C=C(C)[C@@H]1CC[C@]2(C(=O)O)CC[C@]3(C)[C@H](CC[C@@H]4[C@@]5(C)CC[C@H](O)C(C)(C)[C@@H]5CC[C@]43C)[C@@H]12 [BETULINIC ACID],–,92.1,43.4,53.5,90.7,97.5,–,–,–,–,–,–
O=c1[nH]cc(F)c(=O)[nH]1 [FLUOROURACIL],–,–,–,–,–,–,0.56,72.4,–,–,–,–
C=C(C)[C@@H]1CC[C@]2(C(=O)O)CC[C@]3(C)[C@H](CC[C@@H]4[C@@]5(C)CC[C@H](O)[C@@](C)(CO)[C@@H]5CC[C@]43C)[C@@H]12,–,105,97.3,83,99.5,87.6,–,–,1.42,1.76,13.3,10.1
